Source: patent US12194201B2, “Silica nanoparticle doped conductive polymer” (University of Pittsburgh—Of the Commonwealth System of …, priority 2019, dated 2025)
Each block holds one compound with its values, some of them ahead of it.

Key:
[1] = K3[Fe(CN)6] reduction (Prussian blue) antioxidant assay of released melatonin
Protocol: 1 mL of solution was removed and added to 0.8 mL of water, followed by the addition of 200 μL of FeCl3(0.01%, 6 μM), creating a deep blue dye. The absorbance of the resulting solution was measured at 700 nm.

[2] = Electrically controlled dye loading and release from PEDOT/SNP films in PBS; assay type: physicochemical
Text: Drug loading and release from conducting polymers with electrical control offers a precise method for pharmacological delivery directly to the site of implantation on demand. Mesoporous SNP were employed for drug delivery due to their exceptionally high loading volume. Rhodamine and fluorescein were used as model drugs for quantifying drug release profile. Fluorescein has a negative charge while rhodamine-b is positively charged, and the combination of rhodamine and fluorescein allow for a better understanding of how oppositely charged compounds can be released from PEDOT/SNP films. The drug loading and release mechanism is depicted in FIG. 2. Nanoparticles were suspended in an aqueous solution of fluorescein, rhodamine, or a combination of both, and sonicated to encourage the entry of the dye into the pores. Loaded sulfonate nanoparticles are then collected from solution by centrifuge then resuspended in an aqueous solution of EDOT. PEDOT/SNP films are polymerized under constant current, producing a film of polymer gated silica nanoparticles. An immediate observation made was the ease of polymerization when the dye was loaded into SNPs prior to polymerization vs without SNPs, with electrode potential being substantially lower for electro-polymerization of drug loaded SNP (FIG. 11). After polymerization, electrodes coated with the dye-loaded composite were examined under a fluorescent microscope to observe the release in phosphate buffered saline (PBS) in real time (FIG. 12). A cyclic voltage sweep from 0.8V to −0.6V was used to trigger drug release from the coatings. We observed a halo of fluorescence surrounding the electrode upon stimulation, which dissipates within seconds of the end of stimulation.
We further quantified the amount of release over number of stimuli from PEDOT/SNP composite and compared the performance to a control group of PEDOT loaded with the dye directly without the mesoporous SNP. Control and SNP dopant groups were polymerized to the same charge density. […]

[3] = tested on: sensory evoked neural activity recorded in barrel cortex; conditions: released from PEDOT/CNT films, rat barrel cortex; cited from earlier work
neural activity = assay: In vivo DNQX release from PEDOT/SNP coated carbon fiber electrode, GCaMP imaging; conditions: DNQX loaded PEDOT/SNP on carbon fiber electrode, reducing potential, GCaMP mouse
Text: Next, we aimed to modulate cellular activity by release of the glutamate AMPA/Kainate receptor antagonist 6,7-dinitroquinoxaiine-2,3-dione (DNQX). DNQX is a small, negatively charged compound that blocks glutamate transmission. We have previously observed that DNQX may be loaded and electrically released from PEDOT/CNT films in vivo and produce a transient (<6 second) inhibition of sensory evoked neural activity recorded in barrel cortex of rats.^[9] In this study, DNQX release from PEDOT/SNP was assessed using a GCaMP mouse model. The GCaMP fluorescence is tied directly to intracellular calcium activity, such that when neurons fire action potentials, the calcium influx cause GCaMP to produce a bright green fluorescence. […]
All animal work was performed under the guidelines of the University of Pittsburgh Institutional Animal Care and Use Committee (IACUC). […] First, a 2-minute baseline was recorded. […] Following 10 cycles of stimulation, a final 2-minute baseline recording was performed Calculations of fluorescence are made by first masking the electrode. A background fluorescence was determined by averaging all frames together, allowing for representation of small time windows as the % change vs the background intensity as shown below.
The inter-pulse fluorescence was determined by Δf during the reducing voltage, and comparing this to the Δf during the prior oxidative voltage (V>−0.2).

[4] = tested on: highly aggressive proliferating immortalized (HAPI) microglia cells; assay: Live/Dead staining of cells on polymer substrate; assay type: cell-based; conditions: 2 days, Triton-X 0.2% positive control on TCPS
Protocol: A cytotoxicity assessment was performed on the PEDOT/SNP composite. Both PEDOT^[51] and silica nanoparticles^[40] have each been successfully employed in in vivo applications. However, small changes to the surface chemistry of the silica nanoparticle warrant investigation into the potential for adverse biological interactions. The commonly employed polymer PEDOT/PSS itself has been previously characterized as non-toxic;^[52] and was used as an ideal reference for the toxicity testing of the PEDOT/SNP. The biocompatibility of the PEDOT/SNP surface was evaluated by directly culturing highly aggressive proliferating immortalized (HAPI) microglia cells on the substrate. After 2 days, XTT was used to measure to metabolic activity of the cells. […] A small degree of auto-fluorescence is detectable for both polymer coatings, resulting in a slight amount of red and green background. […] Given these findings, we can expect that the PEDOT/SNP surface is safe and non-toxic for acute experimentation, while chronic biocompatibility should still be evaluated. […]
XTT assay was performed as directed by the distributer. […] Cells were incubated for 3 hours and the absorbance of the supernatant was measured at 450 nm. […] Cells were incubated for 1 hour and imaged with fluorescence microscopy.

[5] = tested on: 3T3 mouse fibroblast cells; assay: 3T3 viability (XTT) after incubation with released Dox; assay type: cell-based; conditions: 3-day incubation
Protocol: (§1) Electrochemical methods of drug release may alter the activity of a compound due to the applied potentials, and it is therefore important to verify that the loading and release process doesn't compromise the drug's bioactivity. […] For Dox, a potent chemotherapeutic, release was performed for 0 (passive diffusion for 24 hours), 20, or 200 cycles into serum free DMEM. A small amount of diffusion release was observed from Dox loaded electrodes, as measured by absorbance at […]. […] Released Dox was introduced to cultured 3T3 mouse fibroblast cells (FIG. 7B) and the toxicity was compared to freshly prepared Dox solution at the same concentration. After a 3-day incubation period, the viability of the 3T3 cells was evaluated with the XTT assay. […] Therefore, even though we detected a minute amount of Dox in the diffusion control, this quantity is below the toxic level.
XTT assay was performed as directed by the distributer. In brief, 2,3-Bis-(2-Methoxy-4-Nitro-5-Sulfophenyl)-2H-Tetrazolium-5-Carboxanilide (XTT, Invitrogen, 1 mg ml^−1) was added to culture media. 10 μl of phenazine methosulfate (PMS, 10 mM) was added to XTT/media solution (4 ml) just prior to the addition of XTT solution (50 uL) per well. Cells were incubated for 3 hours and the absorbance of the supernatant was measured at 450 nm. HAPI cells were imaged with a Live/Dead assay (Invitrogen). Supernatant solution was removed and replaced with 1/1000 dilutions for Propidium Iodide and Calcein AM in PBS. Cells were incubated for 1 hour and imaged with fluorescence microscopy.
Dox was loaded and released from PEDOT/SNP films as described above. 3T3 cells were cultured in 48 well plates for 2 days to reach semi-confluency, at which point the culture media was removed and replaced with serum-free media containing stock dox, released dox, or no dox. Cells were culture for 72 h, at which point the media was aspirated and the viability of the cells measured with XTT assay as described above.

[6] = Dox release from PEDOT/SNP film into serum free DMEM; assay type: physicochemical
Protocol: as §1
5 mg of mesoporous SNP were sonicated with 200 μl of drug solution for 20 minutes prior to the particles being collected by centrifuge and dried under vacuum.
5 mg of drug loaded particles were suspended in 3 ml of EDOT (0.01M) solution in water. Electropolymerization was carried out for 200 seconds on 2 mm diameter gold electrodes or 70 μm diameter Pt/Ir wires (A-M systems, 90/10 Pt/Ir). Electrodes were then washed with PBS on an orbital shaker for 2 hours then soaked overnight to remove any adsorbed drugs.

Compound: COc1ccc2[nH]cc(CCNC(C)=O)c2c1 [melatonin]
- change in absorbance at 700 nm (antioxidant capacity) ([1]; melatonin released from PEDOT/SNP film): significant change in the absorbance
- change in absorbance at 700 nm (antioxidant capacity) ([1]; stock melatonin): significant change in the absorbance

- quantified fluorescent intensity during release vs after ([2]; PBS, cyclic voltage sweep 0.8V to −0.6V, dye-loaded PEDOT/SNP): significantly higher
- dye release relative to control sample ([2]; over 9,000 (fluorescein) and 5,000 (rhodamine) stimulations, control PEDOT loaded with dye without SNP): substantial increase
- Overall drug loading increase when SNP used as a reservoir ([2]; vs PEDOT loaded with the dye directly, same charge density): 16.8 ×
Compound: CCN(CC)c1ccc2c(-c3ccccc3C(=O)O)c3ccc(=[N+](CC)CC)cc-3oc2c1 [rhodamine, rhodamine-b]

Compound: 6,7-dinitroquinoxaline-2,3-dione [DNQX]
- duration of transient inhibition of sensory evoked neural activity [3]: < 6 s
- GCaMP fluorescence intensity during DNQX release vs prior (neural activity): significant decrease

Compound: Triton-X
- Live dead staining of the cells on the substrate [4]: no viable cells

- Dox released from PEDOT/SNP film ([6]; 20 stimulations): 1.44 μg cm^−2
- Dox released from PEDOT/SNP film ([6]; 200 stimulations): 7.4 μg cm^−2
Compound: COc1cccc2c1C(=O)c1c(O)c3c(c(O)c1C2=O)C[C@@](O)(C(=O)CO)C[C@@H]3O[C@H]1C[C@H](N)[C@H](O)[C@H](C)O1 [Dox, Doxorubicin]
- effect of released Dox vs concentration-matched stock Dox [5]: no difference
- 3T3 viability vs standard culture media ([5]; diffusion control (0 cycles, passive diffusion 24 hours)): No significant difference
- 3T3 viability vs control ([5]; released Dox from 20 stimulations): significantly reduced the viability
- 3T3 viability vs control ([5]; released Dox from 200 stimulations): significantly reduced the viability
